{
  "source": "patent US10941180B2",
  "about": "“Peptoid compound, and derivative, salt, preparation method and use thereof” (BOE Technology Group Co., Ltd., priority 2018, dated 2021)",
  "key": {"Her2 protein": {"target": "T1, Her2 protein (Homo sapiens, UniProt P04626)", "T1 construct": "purchased Sigma (USA)", "T1 sequence (P04626 23-1255)": "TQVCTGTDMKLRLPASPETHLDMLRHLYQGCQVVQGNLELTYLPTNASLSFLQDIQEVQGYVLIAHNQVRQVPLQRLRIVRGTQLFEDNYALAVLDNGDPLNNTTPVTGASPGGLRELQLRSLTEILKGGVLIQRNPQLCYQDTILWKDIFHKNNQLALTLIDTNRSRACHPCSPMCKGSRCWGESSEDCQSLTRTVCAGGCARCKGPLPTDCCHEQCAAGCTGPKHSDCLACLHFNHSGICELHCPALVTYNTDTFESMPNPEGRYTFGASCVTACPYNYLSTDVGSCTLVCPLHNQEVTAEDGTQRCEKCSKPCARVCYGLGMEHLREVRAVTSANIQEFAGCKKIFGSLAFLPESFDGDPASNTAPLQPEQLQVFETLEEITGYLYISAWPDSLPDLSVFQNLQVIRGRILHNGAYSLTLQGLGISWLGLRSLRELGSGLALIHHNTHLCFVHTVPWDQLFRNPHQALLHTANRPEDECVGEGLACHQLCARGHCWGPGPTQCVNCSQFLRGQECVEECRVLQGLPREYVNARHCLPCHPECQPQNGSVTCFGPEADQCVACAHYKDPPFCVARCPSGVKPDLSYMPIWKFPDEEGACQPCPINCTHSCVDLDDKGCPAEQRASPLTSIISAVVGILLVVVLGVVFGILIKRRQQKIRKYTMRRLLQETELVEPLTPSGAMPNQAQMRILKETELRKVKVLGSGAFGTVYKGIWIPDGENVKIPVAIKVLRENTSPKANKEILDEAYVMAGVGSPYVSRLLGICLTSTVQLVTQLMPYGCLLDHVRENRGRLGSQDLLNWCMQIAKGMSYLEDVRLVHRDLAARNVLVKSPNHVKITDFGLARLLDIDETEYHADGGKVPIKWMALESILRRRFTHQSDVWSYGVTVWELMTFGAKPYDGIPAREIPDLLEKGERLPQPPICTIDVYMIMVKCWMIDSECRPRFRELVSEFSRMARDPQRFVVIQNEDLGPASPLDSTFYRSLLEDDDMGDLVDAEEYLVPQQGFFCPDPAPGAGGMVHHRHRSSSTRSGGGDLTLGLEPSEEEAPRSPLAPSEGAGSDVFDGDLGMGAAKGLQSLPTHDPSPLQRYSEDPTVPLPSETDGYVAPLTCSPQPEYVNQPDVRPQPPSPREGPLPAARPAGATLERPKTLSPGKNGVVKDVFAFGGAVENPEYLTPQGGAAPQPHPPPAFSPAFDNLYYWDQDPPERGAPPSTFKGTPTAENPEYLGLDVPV", "assay": "Binding ability to Her2 protein by surface plasmon resonance imaging (SPRi)", "method": "(§1) The SPRi apparatus described in the following examples was Plexera Kx5V2, Plexera Bioscience LLC, USA; and phosphate buffer saline (PBS), phosphoric acid, and proteinase K were prepared according to the product instruction manual.\nUnless otherwise indicated, “Her2 protein” herein refers to the full-length Her2 protein.\nThe specific steps for testing the binding ability of the peptoid compound of Preparation Example 1 or the peptoid Derivative of Preparation Example 2 to the Her2 protein by surface plasmon resonance imaging techniques are shown as follows:\n(1) dissolving the peptoid compound of Preparation Example 1 or the peptoid derivative of Preparation Example 2 into ddH2O at a concentration of 1 to 1000 μM to prepare a peptoid compound molecular probe sample to be spotted at a gradient concentration of 1-1000 μM;\n(2) spotting the above peptoid compound molecular probe sample on a surface of a 3D chip (PlexArray HT, Plexera Bioscience, USA), in which each sample is repeated for 3 points, incubated at 4° C. for 12 hours, and washed by 10×PBS, 1×PBS and ultrapure water in sequence. The chip was then blocked with 1 M of aminoethanol hydrochloride for 30 minutes, then washed 5 times with ultrapure water, and finally dried with clean nitrogen; […]"}, "[1]": {"target": "T2, Her2 protein in the serum (Homo sapiens, UniProt P04626)", "T2 construct": "introducing the serum of the patient with breast cancer and the normal person (diluted 1:5000 in volume); from tissue; host or cells: human serum (breast cancer patients with high Her2 expression, and normal persons)", "T2 sequence (P04626 23-647 limits assumed)": "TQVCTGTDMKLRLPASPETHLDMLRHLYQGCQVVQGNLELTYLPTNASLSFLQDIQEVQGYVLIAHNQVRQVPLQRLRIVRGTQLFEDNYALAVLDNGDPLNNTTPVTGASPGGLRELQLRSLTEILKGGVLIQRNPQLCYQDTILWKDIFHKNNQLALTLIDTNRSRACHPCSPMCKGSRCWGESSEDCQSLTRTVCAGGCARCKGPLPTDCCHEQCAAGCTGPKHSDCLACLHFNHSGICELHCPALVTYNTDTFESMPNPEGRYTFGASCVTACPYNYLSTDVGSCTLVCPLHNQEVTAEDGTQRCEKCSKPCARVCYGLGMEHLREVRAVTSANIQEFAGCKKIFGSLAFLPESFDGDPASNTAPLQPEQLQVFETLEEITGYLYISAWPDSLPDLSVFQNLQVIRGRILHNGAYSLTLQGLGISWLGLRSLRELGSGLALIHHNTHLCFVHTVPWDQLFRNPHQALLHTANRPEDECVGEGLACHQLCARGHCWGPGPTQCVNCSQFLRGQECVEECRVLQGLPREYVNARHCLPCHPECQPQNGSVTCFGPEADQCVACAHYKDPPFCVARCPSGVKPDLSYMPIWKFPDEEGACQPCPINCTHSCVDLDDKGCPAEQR", "assay": "Detection of serum signals of breast cancer patients and normal persons by SPRi with the peptoid probe chip", "format": "binding", "conditions": "serum diluted 1:5000; probe concentrations 80 μM, 400 μM, 2 mM, 10 mM, 50 mM; FIG. 3", "method": "as §1\nUnless otherwise indicated, “patients with breast cancer” herein refers to patients with breast cancer having a high Her2 expression.\nThe specific steps for testing the detection of the peptoid compound of Preparation Example 1 or the peptoid Derivative of Preparation Example 2 for the blood of the patients with breast cancer by surface plasmon resonance imaging techniques are shown as follows:\n(1) in the same manner as in Experimental Example 1, preparing the same 3D chip as in Experimental Example 1, mounting the chip on the SPRi instrument, measuring SPRi angle and adjusting it to the optimal optical position, in which relevant detection points including sample points and blank points are selected in the detection area, and the experimental flow rate is set to 2 μL/s; […]"}},
  "note": "Read-outs that look alike come from different tables or passages of the source. Starred links: 1 amine or outer side, 2 acyl side, 3 side chain; linkers in the order of their positions; H or OH if unused. Non-standard residues stand in square brackets, D forms with d. Residues, ends and D or L forms follow the SMILES beside them. X2 = O=C(CN(CCc1ccc(-c2ccccc2)cc1)[*:1])[*:2]; Gly(N-piperonyl) = O=C(O)CNCc1ccc2c(c1)OCO2; X1 = CC(c1ccccc1)N(CC(=O)[*:2])[*:1]; Gly(N-2-aminoethyl) = NCCNCC(=O)O; Nleu = CC(C)CNCC(=O)O; Nlys = NCCCCNCC(=O)O",
  "data": [
    {"smiles": "CC(C)CN(CC(=O)N(CCCCN)CC(=O)N(CC(=O)N(CCCCN)CC(=O)N(CCCCN)CC(=O)N(CCN)CC(=O)N(CCc1ccc(-c2ccccc2)cc1)CC(N)=O)Cc1ccc2c(c1)OCO2)C(=O)CN(C(=O)CNCCCCN)C(C)c1ccccc1", "note": "(stereo not drawn) [Preparation Example 1] (H-[Nlys][X1][Nleu][Nlys][Gly(N-piperonyl)][Nlys][Nlys][Gly(N-2-aminoethyl)][X2]-NH2)", "values": [
      {"measurement": "Kd", "setting": "Her2 protein; probe spotted on 3D chip, Her2 at 2.632, 1.316, 0.658, 0.329 μM, fitted with BIAevalution 4.1, read-out: equilibrium dissociation constant KD", "result": 61.8, "unit": "nM"},
      {"measurement": "Kd", "setting": "Her2 protein; read-out: equilibrium dissociation constant KD in the binding kinetic constant with Her2 (order of magnitude)", "result": "~10", "unit": "nM"},
      {"measurement": "distinction of serum samples of breast cancer patients from normal persons (ΔAU signal)", "setting": "[1]", "result": "clearly distinguish the serum samples of the patients with breast cancer"}
    ]}
  ]
}
